Legend:
[1] = test system: ALDH+ cancer stem cells (CSC) in MOLM-14 cell line; assay: Aldefluor kit assay, ALDH+ compartment analysis; format: cell-based, human; conditions: for Activity against CSCs in Aldefluor™ assay (proportion of CSCs) / Aldefluor™ positive CSCs (% of control): MOLM-14; for Activity against CSCs in Aldefluor™ assay (proportion of CSCs): dose dependent, Cytarabine up to 3-fold its EC50; for Aldefluor positive CSCs (% of control): MOLM-14 cell line, 72 h incubation; for Aldefluor™ positive CSCs (% of control): 72 h
From the text: Analysis of the of aldehyde dehydrogenase (ALDH) compartment and high activity level of aldehyde dehydrogenase activity (ALDH+) was used to detect tumor initiating cells (cancer stem cells, CSC) population. The Aldefluor™ kit assay (StemCell Technologies) allowed to assess the activity of drugs on CSC cells like in aa MOLM-14 acute myeloid leukemia cell line population. The Aldefluor™ kit assay was used according to the procedure described by the manufacturer. Briefly, MOLM-14 cell line was cultured in RPMI-1640 Medium supplemented with 10% v/v Fetal Bovine Serum (FBS), 1% Penicillin-Streptomycin and maintained at 37° C. with 5% CO2. 5·10^5 cells were used in this assay. Each compound was added at different concentrations (see table 13 and 14), and cell cultures were incubated for 72 h. Vehicle (H2O) was used as a control, and all compounds were tested in a constant percentage of vehicle. Cells obtained from cell culture were incubated for 45 minutes at 37° C. with Aldefluor™ buffer assay containing the Bodipy™-aminoacetaldehyde (BAAA), a fluorescent ALDH aldehyde substrate. ALDH converts the fluorescent substrate BAAA to the Bodipy™-aminoacetic acid (BAA) which is retained in the cell. An active efflux inhibitor is present in the Adelfluor™ assay buffer in order to avoid the active efflux from the cell of the substrate product ALDH dependent converted BAA. The fluorescent signal is directly proportional to the ALDH activity in the cells and is measured by flow cytometry. A negative control is used to measure the background fluorescence level. For such purpose, 4-(N,N-diethylamino)-benzaldehyde (DEAB) was used as selective ALDH inhibitor. A viability cell count was performed using LIVE/DEAD® Fixable Far Red Dead Cell Stain Kit (Invitrogen). The experimental data are analyzed using a computer program, Graphpad Prism (GraphPad Software, Inc. La Jolla, Calif.) and EC50 values were determined as the dose of compound required to reduce absorbance values to 50% of the signal obtained for vehicle treated cell cultures.

Colo205 = assay: EC50 determination in cancer cell lines; format: cell-based; conditions: Homo sapiens, COLO 205, 72 h, * n>2
Outline: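 Treatment lasts 72 h at a fixed vehicle content of DMSO or H2O. The readout is MTS for adherent cells and SRB for suspension cells. Each EC50 is the concentration halving absorbance relative to vehicle.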

MOLM-14 cell line = assay: Growth inhibition assay of MOLM-14 (CellTiter-Glo, example 63); format: cell-based; conditions: Homo sapiens, 48 h, method of example 63
Procedure: MOLM-14 cell line was cultured in RPMI-1640 Medium supplemented with 10% v/v Fetal Bovine Serum (FBS), 1% Penicillin-Streptomycin and maintained at 37° C. with 5% CO2. 10,000 cells were plated onto 96-well plates immediately before the assay.
Each compound was added at different concentrations (combinations of six concentrations) to each well, and cell cultures were incubated for 48 h. Vehicle (H2O) was used as a control, and all compounds were tested in a constant percentage of vehicle. Cell outgrowth was measured using the CellTiter-Glo luminescent cell viability assay as described by the manufacturer (Promega, Ref G7571 Madison, Wis., USA) using a Centro (Berthold, France) plate reader.
In each experiment, each point represents the average of triplicates in cell culture.
(§1) The experimental data are analyzed using a computer program, Graphpad Prism (GraphPad Software, Inc. La Jolla, Calif.) and EC50 values were determined as the dose of compound required to reduce absorbance values to 50% of the signal obtained for vehicle treated cell cultures.

HCT-116 = assay: EC50 determination in cancer cell lines; format: cell-based, human; conditions: Homo sapiens, HCT-116, 72 h
Procedure: Compounds were added at different concentrations to each well, and cell cultures were incubated for 72 h. Vehicle (DMSO or H2O) was used as a control, and all compounds were tested in a constant percentage of vehicle. Cell outgrowth was measured using for adherent cells CellTiter […] Aqueous One Solution Cell Proliferation Assay (Promega) and for cell suspension, Sulforhodamine B colorimetric assay as described in Vichai et al. (Vichai, V. and Kirtikara, K. Nat. Protoc. 2006 (1) 1112-1116). Absorbance was measured using an Infinite F200 Pro or Sunrise TECAN plate reader.
The human melanoma cell line A375, colorectal carcinoma cell line HCT-116, hepatocellular carcinoma cell line HepG2 were cultured in Dulbecco's modified Eagle's medium supplemented with 10% fetal bovine serum and 1% Penicillin-Streptomycin. The human melanoma cell lines SK-MEL-28 and SK-MEL-5 were cultured in Minimum Essential Medium. The colorectal carcinoma cell lines HT-29 and Colo205 were respectively cultured in Mc Coy's and RPMI media. The human leukemia cell lines MV4-11 and KG-1 were cultured in Iscove's Modified Dulbecco's Media. The human leukemia cell line MOLM-14 was cultured in Minimum Essential Medium Alpha Medium supplemented with 10% Fetal Bovine Serum and 1% Penicillin-Streptomycin All culture media were supplemented with 10% fetal bovine serum and 1% Penicillin-Streptomycin except for MV4-11 cell line 20% fetal bovine serum and 1% Penicillin-Streptomycin. All the cell lines were maintained at 37° C. with 5% C02.
Briefly, adherent cells, A375, HCT-116, HepG2, SK-MEL-28, SK-MEL-5, HT-29 and Colo205 cells were respectively plated at 800, 5,000, 7,000, 2,500, 3,000-5,000, 5,000 or 5,000 cells per well onto 96-well plates in 90 μL of media per well and were allowed to grow overnight before the assay. For MV4-11 and KG-1 cells that grow in suspension, 40,000-60,000 cells were plated onto 96-well plates immediately before the assay. MOLM-14 cell line, that grow in suspension, 30,000 cells were plated onto 96-well plates immediately before the assay. […]
as §1, with “cultures and were a mean of at least two independent experiments except for EC50 values with (*) where […].” for “cultures.”

For Cc1ccc(-c2cc(N3CCC(NC(C)(C)C)CC3)c3ccccc3n2)cc1.Cl.Cl [XIII-8, 2-(4-methyl-phenyl)-4-(4-N-tert-butylamino-piperidin-1-yl)quinoline dihydrochloride], the “Activity against CSCs in Aldefluor™ assay (proportion of CSCs)” value [1] was “reduced the proportion of CSCs”, the “Aldefluor positive CSCs (% of control)” value ([1]; 5 μM) was 84 % of control and the “Aldefluor positive CSCs (% of control)” value ([1]; 10 μM) was 83 % of control. For the same molecule, the “Aldefluor positive CSCs (% of control)” value ([1]; 20 μM) was 58 % of control, the “Aldefluor positive CSCs (% of control)” value ([1]; 40 μM) was 23 % of control and the EC50 (Colo205) was 8 µM. It also gave an EC50 (MOLM-14 cell line) of 6 µM and an EC50 (HCT-116) of 8 µM.
For CCN(CC)C1CCN(C(C)c2cc(-c3ccccc3)nc3ccccc23)CC1.Cl.Cl (centres unmarked) [XIX-3, 2-phenyl-4-{1-[4-(N,N-diethylamino)piperidin-1-yl]-eth-1-yl}quinoline dihydrochloride], the “Aldefluor™ positive CSCs (% of control)” value ([1]; 5 μM) was 86 % of control, the “Aldefluor™ positive CSCs (% of control)” value ([1]; 10 μM) was 66 % of control and the “Aldefluor™ positive CSCs (% of control)” value ([1]; 20 μM) was 42 % of control. For the same molecule, the “Aldefluor™ positive CSCs (% of control)” value ([1]; 40 μM) was 25 % of control, the “Activity against CSCs in Aldefluor™ assay (proportion of CSCs)” value [1] was “reduced the proportion of CSCs” and the EC50 (MOLM-14 cell line) was 22 µM. The EC50 (HCT-116) was 12 µM.
Work on CCN(CC)C1CCN(C(C)c2cc(-c3ccc4ccccc4c3)nc3ccccc23)CC1.Cl.Cl (centres unmarked) [XXIV-3, 2-(2-naphtyl)-4-{1-[4-(N,N-diethylamino)-piperidin-1-yl]-eth-1-yl}quinoline dihydrochloride] yielded an EC50 (Colo205) of 5 µM and an EC50 (HCT-116) of 4 µM.

From patent publication US10179770B2, “Quinolines derivatives as novel anticancer agents” (GENOSCIENCE PHARMA, priority 2013, dated 2019)
